The record followed here is patent publication US20240400579A1, “SPIROCYCLIC MODULATORS OF CHOLESTEROL BIOSYNTHESIS AND THEIR USE FOR PROMOTING REMYELINATION” (GENENTECH, INC., priority 2021, published 2024).

Broadly, the Ki is the equilibrium dissociation constant of an inhibitor or competing ligand from its target. A low value points to higher affinity. As usually defined, the EC50 is the concentration that produces a half-maximal response.

Like-named read-outs stand apart in the source and are kept apart here.

The target in test [1] is human emopamil binding protein and human 7-dehydrocholesterol reductase co-expressing cell membrane (Homo sapiens (Human), UniProt Q15125). In words: hEBP-DHCR7 radioligand filtration binding assay with [3H]-Compound 118A*. Particulars: radioligand [3H]-Compound 118A*; HEK293 membrane co-expressing hEBP and DHCR7. The protocol: Membrane Preparation: human emopamil binding protein and human 7-dehydrocholesterol reductase co-expressing cells were generated by transient transfecting host human embryonic kidney (HEK) 293 cells with 2 DNA constructs containing each protein's coding sequence. Cells were suspension cultured at 37° C. with 5% CO2 in […] 293 Expression Medium (Thermofisher). Whole cell membrane was prepared by harvesting the cell pellet, adding cold membrane buffer (50 mM Tris, pH7.5, 1× Roche COMPLETE EDTA-free protease inhibitor cocktail) 10 times volume of the cell pellets weight, lysing cell pellet on ice by using Dounce homogenizer, spinning at 200 g 4° C. for 15 min, collecting supernatant and spinning again at 25000 g 4° C. for 50 min, transferring pellet to Dounce homogenizer, re-suspending pellet by homogenizing in membrane buffer on ice to reach ˜25 mg/mL, then keeping whole cell membrane aliquots at −80° C.
Compounds were prepared in a 96-well U bottom plate using an Echo550 machine and 10 mM compound DMSO stock solution, followed by an 8-dose 5-fold serial dilutions protocol with final testing compound concentration ranging from 0.06 to 5000 nM, with DMSO back fill to 100 nL/well and n=2. […] The UniFilter-96 GF/B plates were pre-treated by adding 50 μl/well of 0.3% (v/v) PEI to UniFilter-96 GF/B plates. The plates were sealed and incubated at 4° C. for 3 hrs. Then, the plates were washed with ice-cold assay buffer 3 times. The radioligand binding assay was prepared by adding assay buffer diluted hEBP-DHCR7 membrane at 66.7 μg/ml x 150 μl/well into the 96-well compound plate to reach 10 μg membrane per well. Then, the assay buffer diluted [3H]-Compound 118A* was added at 25 nM×50 μl/well. Following this, the plate was centrifuged at 1000 rpm for 30 secs. The plate was then sealed and agitated at 600 rpm at 22° C. for 5 min, and then incubated at 22° C. for 3 hrs. The incubation was stopped by transferring the binding solution to the pre-treated UniFilter-96 GF/B plate, vacuum filtrated, and then washed four times with ice-cold assay buffer. Following this, the plates were dried at 37° C. for 45 min. The plates were then sealed at the bottom. 40 μl/well of scintillation cocktail was added to the plates. A MicroBeta2 microplate counter was then used to read the plate and analyze the data. For reference and test compounds, the results are expressed as % Inhibition, using the normalization equation: N=100-100×(U−C2)/(C1−C2), where U is the unknown value, C1 is the average of high controls, and C2 is the average value of low controls. The IC50 was determined by fitting percentage of inhibition as a function of compound concentrations with Hill equation using XLfit. Results are expressed as hEBP-DHCR7 Ki (uM) in Table 4. Ki was calculated as described above.

The subject of a further test is EpiSC-derived OPCs. Kind of test: In vitro phenotypic screening of OPCs, MBP high-content imaging. It counts as cell-based, mouse. The conditions noted are these: percentage of MBP+ oligodendrocytes, 3 days, 0.5 nM to 1000 nM, read-out: mOPC EC50. The protocol: (§1) To assess effects of treatments on OPCs, all treatments were assayed in two or more independent platings of epiblast stem cell-derived OPCs (EpiSC). EpiSC-derived OPCs were obtained using in vitro differentiation protocols and culture conditions described previously (Najm et al, 2011, Nature Methods). OPCs were expanded and frozen down in aliquots. OPCs were thawed into growth conditions for at least one passage before use in further assays.
EpiSC-derived OPCs were grown and expanded in poly-L-ornithine (PO) and laminin-coated flasks in N2B27 media (DMEM/F12 (Gibco), N2-MAX (R&D Systems), B-27 (ThermoFisher), and GlutaMax (Gibco)) supplemented with FGF2 ([…], R&D systems, 233-FB-025) and PDGF-AA ([…], R&D systems, 233-AA-050) before harvesting for experiments. The cells were seeded onto poly-L-ornithine or poly-D-lysine coated CellCarrier Ultra plates (PerkinElmer) coated with laminin (Sigma, L2020) at a density of 150,000/cm^2 in N2B27 media without growth factors. For dose-response testing, a 1000× compound stock in dimethyl sulphoxide (DMSO) was added to assay plates, resulting in 8-point dose curves with final concentrations between 1000 nM and 0.5 nM. Positive controls and DMSO vehicle controls were included in each assay plate. Cells were incubated under standard conditions (37° C., 5% CO2) for 3 days and fixed with 4% paraformaldehyde (PFA) in phosphate buffered saline (PBS) for 20 min. Fixed plates were washed with PBS, permeabilized with 0.1% Triton X-100, and blocked with 10% donkey serum (v/v) in PBS for 40 min. Then, cells were labelled with MBP antibodies (Abcam, ab7349; 1:200) for 2 h at room temperature, washed with PBS, and stained with Alexa Fluor conjugated secondary antibodies (1:500) for 45 min. Nuclei were visualized by DAPI staining (Sigma; 1 μg/ml), followed by further PBS washes.
Cells and cell culture plates were imaged on the Operetta High Content Imaging and Analysis system (PerkinElmer). Analysis (PerkinElmer Harmony and Columbus software) began by identifying intact nuclei stained by DAPI. The peri-nuclear region of each cell was then cross-referenced with the mature myelin protein (MBP) stain to identify oligodendrocyte nuclei, and from this the percentage of oligodendrocytes was calculated. EC50 values were calculated using The Levenberg-Marquardt algorithm to fit a Hill equation to dose-response data (0.5 nM to 1000 nM).

In test [2] the test system is zymostenol accumulation in EpiSC-derived OPCs (EBP). In words: GC/MS-based sterol profiling, zymostenol accumulation. The conditions noted are these: 8 doses from 0.15 nM to 333 nM, read-out: mZymo GCMS EC50. The class given is cell-based, mouse. The protocol: as §1
Sterols were monitored using a modified Folch wash protocol (Hubler et al, 2018, Nature). EpiSC-derived OPCs were plated at 100,000 cells per well in PO— and laminin-coated 96-well plates in N2B27 media without growth factors. After 24 hours, cells were rinsed with saline and plates were frozen. Cholesterol-d7 standard was then added to each well before drying under nitrogen stream and derivatization with 55 μl of bis(trimethylsilyl) trifluoroacetamide. After derivatization, 2 μl were analyzed by gas chromatography/mass spectrometry using an Agilent 5973 Network Mass Selective Detector equipped with a 6890 gas chromatograph system and a HP-5MS capillary column (30 m x 0.25 mm×[…]). Samples were analyzed in full scan mode using electron impact ionization; ion fragment peaks were integrated to calculate sterol abundance, and quantitation was relative to cholesterol-d7. The following ion fragments were used to quantitate each metabolite: cholesterol-d7 (465), FF-Mas (482), cholesterol (368), zymostenol (458), zymosterol (456), Desmosterol (456, 343), 7-dehydrocholesterol (456, 325), lanosterol (393), lathosterol (458), 14-dehydrozymostenol (456, 351). […] All standards were obtained from Avanti Polar Lipids unless otherwise indicated. Calibration curves were generated by injecting varying concentrations of sterol standards and maintaining a fixed amount of cholesterol-D7. For normalized zymostenol accumulation results, the total amount of zymostenol measured after drug treatment was divided by the total amount of zymostenol accumulated after 24 hr treatment with 100 nM positive control reference.

Chain of human emopamil binding protein and human 7-dehydrocholesterol reductase co-expressing cell membrane (Q15125 whole entry): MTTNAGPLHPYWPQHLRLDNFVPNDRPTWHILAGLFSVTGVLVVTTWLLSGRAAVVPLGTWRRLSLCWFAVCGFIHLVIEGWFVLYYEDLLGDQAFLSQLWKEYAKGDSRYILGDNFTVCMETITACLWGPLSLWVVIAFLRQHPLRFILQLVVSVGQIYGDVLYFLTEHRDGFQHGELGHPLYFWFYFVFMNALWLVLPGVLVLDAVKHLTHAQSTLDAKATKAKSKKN

In turn, `C[C@@H](Cc1ccc(OC(F)(F)F)cc1)CN1CCC2(C1)CS(=O)(=O)C2` (single isomer, unassigned) [119A*] gave a Ki in test [1] of 7.27 nM. In addition, the EC50 is 0.72 nM in the test with EpiSC-derived OPCs (Mus musculus, 72 h) and 0.52 nM in test [2] (Mus musculus, 24 h).
Taken in the same sequence, the figures for `C[C@H](Cc1ccc(OC(F)(F)F)cc1)CN1CCC2(C1)CS(=O)(=O)C2` (single isomer, unassigned) [119B*] were 10.5 nM, 2.2 nM and 4 nM.
For the molecule `C[C@@H](Cc1ccc(C(F)(F)F)cn1)CN1CCC2(C1)CS(=O)(=O)C2` (single isomer, unassigned) [121A*], the Ki in test [1] turned out to be 115 nM. The 50% effective concentration (EC50) with EpiSC-derived OPCs (Mus musculus, 72 h) amounted to 23 nM; in test [2] (Mus musculus, 24 h), 6.1 nM.
`C[C@H](Cc1ccc(C(F)(F)F)cn1)CN1CCC2(C1)CS(=O)(=O)C2` (single isomer, unassigned) [121B*] came in with a Ki in test [1] of 140 nM. The EC50 in the test on EpiSC-derived OPCs (Mus musculus, 72 h) is 260 nM; in test [2] (Mus musculus, 24 h), 150 nM.
Take `CC(Cc1ccc(F)c(F)c1)CN1CCC2(CC1)CS(=O)(=O)C2` (single isomer, unassigned) [212A*, 7-(3-(3,4-Difluorophenyl)-2-methylpropyl)-2-thia-7-azaspiro[3.5]nonane 2,2-dioxide]: the Ki in test [1] was found to be 15.6 nM. Further, the EC50 is 4.7 nM in the test with EpiSC-derived OPCs (Mus musculus, 72 h) and 2.36 nM in test [2] (Mus musculus, 24 h).
Take `CC(Cc1ccc(F)c(F)c1)CN1CCC2(CC1)CS(=O)(=O)C2` (single isomer, unassigned) [212B*, 7-(3-(3,4-Difluorophenyl)-2-methylpropyl)-2-thia-7-azaspiro[3.5]nonane 2,2-dioxide]: the Ki in test [1] amounted to 10.1 nM. In addition, the EC50 with EpiSC-derived OPCs was 4 nM; in test [2] (24 hours), 2.1 nM.
With `C[C@@H](Cc1ccc(C(F)(F)F)cc1)CN1CCC2(CC1)CS(=O)(=O)C2` (single isomer, unassigned) [216A*], in test [1], affinity was put at a Ki of 9.98 nM. Moreover, the EC50 with EpiSC-derived OPCs (Mus musculus, 72 h) turned out to be 1.4 nM; in test [2] (Mus musculus, 24 h), 0.95 nM.
In turn, `C[C@H](Cc1ccc(C(F)(F)F)cc1)CN1CCC2(CC1)CS(=O)(=O)C2` (single isomer, unassigned) [216B*] registered a Ki in test [1] of 15.6 nM. The EC50 in the test on EpiSC-derived OPCs (Mus musculus, 72 h) worked out at 3.3 nM; in test [2] (Mus musculus, 24 h), 0.99 nM.
For `C[C@H](CN1CCC2(CC1)CS(=O)(=O)C2)Oc1ccc(F)c(F)c1` (single isomer, unassigned) [221B*], the affinity in test [1], expressed as Ki, was 10.6 nM. The EC50 is 13 nM in the test with EpiSC-derived OPCs and 4.6 nM in test [2] (24 hours).
For `C[C@@H](CN1CCC2(CC1)CS(=O)(=O)C2)Oc1ccc(C(F)(F)F)cc1` (single isomer, unassigned) [227A*], affinity in test [1] was put at a Ki of 15.3 nM. For the same molecule, the EC50 was determined as 7.6 nM with EpiSC-derived OPCs (Mus musculus, 72 h) and 3.2 nM in test [2] (Mus musculus, 24 h).
Taken in the same sequence, the figures for `C[C@H](CN1CCC2(CC1)CS(=O)(=O)C2)Oc1ccc(C(F)(F)F)cc1` (single isomer, unassigned) [227B*] were 9.8 nM, 2.4 nM and 2.1 nM.
The molecule `C[C@H](Cc1ccc(C(F)(F)F)cc1)CN1CC2(CCS(=O)(=O)CC2)C1` (single isomer, unassigned) [232A*] had a Ki in test [1] of 13.9 nM. In addition, the EC50 in the test with EpiSC-derived OPCs (Mus musculus, 72 h) was determined as 5.6 nM; in test [2] (Mus musculus, 24 h) it was 2 nM.
Molecule `C[C@@H](Cc1ccc(C(F)(F)F)cc1)CN1CC2(CCS(=O)(=O)CC2)C1` (single isomer, unassigned) [232B*] had a Ki in test [1] of 12.7 nM. The EC50 is 15 nM in the test with EpiSC-derived OPCs (Mus musculus, 72 h) and 5.7 nM in test [2] (Mus musculus, 24 h).
With `C[C@@H](Cc1ccc(C(F)(F)F)nc1)CN1CC2(CCS(=O)(=O)CC2)C1` (single isomer, unassigned) [234B*], in test [1], the affinity, expressed as Ki, was 193 nM. Besides, the EC50 in the test with EpiSC-derived OPCs (Mus musculus, 72 h) amounted to 210 nM; in test [2] (Mus musculus, 24 h), 35 nM.
`CC(C)n1nc(C(F)(F)F)cc1C[C@@H](C)CN1CCC2(C1)CS(=O)(=O)C2` (single isomer, unassigned) [235A*] displayed a Ki in test [1] of 19.7 nM. Also, the EC50 in the test with EpiSC-derived OPCs (Mus musculus, 72 h) was 19.9 nM; in test [2] (Mus musculus, 24 h), 6.1 nM.
Taken in the same sequence, the figures for `CC(C)n1nc(C(F)(F)F)cc1C[C@H](C)CN1CCC2(C1)CS(=O)(=O)C2` (single isomer, unassigned) [235B*] were 17.1 nM, 3.89 nM and 2.6 nM.
Taken in the same sequence, the figures for `O=S1(=O)CC2(CCN(CC[C@H](F)c3ccc(C(F)(F)F)nc3)CC2)C1` (single isomer, unassigned) [237A*] were 89.6 nM, 26.9 nM and 30.1 nM.
Regarding `O=S1(=O)CC2(CCN(CC[C@@H](F)c3ccc(C(F)(F)F)nc3)CC2)C1` (single isomer, unassigned) [237B*], in test [1], the Ki worked out at 117 nM. The 50% effective concentration (EC50) turned out to be 69.1 nM with EpiSC-derived OPCs (Mus musculus, 72 h) and 17 nM in test [2] (Mus musculus, 24 h).
Regarding `O=S1(=O)CC2(CCN(CC[C@@H](F)c3ccc(C(F)(F)F)cc3)C2)C1` (single isomer, unassigned) [Compound 122A], the inhibitory constant (Ki) in test [1] amounted to 15.6 nM. The concentration for a half-maximal effect (EC50) in the test on EpiSC-derived OPCs (Mus musculus, 72 h) was determined as 10 nM; in test [2] (Mus musculus, 24 h), 1.5 nM.
On to `CC(C)(Cc1ccc(C(F)(F)F)nc1)CN1CC[C@]2(CCS(=O)(=O)C2)C1` (single isomer, unassigned) [Compound 148A], for which the Ki in test [1] is 23.6 nM. Besides, the EC50 with EpiSC-derived OPCs (Mus musculus, 72 h) came out at 31 nM; in test [2] (Mus musculus, 24 h) it was 4.9 nM.
